Test results taken from PMC6117054, “The Congo red derivative FSB binds to curli amyloid fibers and specifically stains curliated E. coli” (PLoS ONE, 2018).

Molecular target: T1, curli (native curli fibers; monomeric unit CsgA) (Escherichia coli, UniProt P28307)
T1 construct: native curli amyloid fibers isolated from E. coli MC4100; mature secreted CsgA (signal peptide removed); 13 kDa monomeric unit; fiber polymer
Assay: depletion (centrifugation) assay, absorbance of free dye at […] nm, saturation fit
Type: binding

T1 sequence (P28307 21-151): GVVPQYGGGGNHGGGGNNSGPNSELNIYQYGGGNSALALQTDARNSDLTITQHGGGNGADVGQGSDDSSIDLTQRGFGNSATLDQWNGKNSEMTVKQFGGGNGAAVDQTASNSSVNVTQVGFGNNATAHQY

## O=C(O)c1cc(/C=C/c2ccc(/C=C/c3ccc(O)c(C(=O)O)c3)c(F)c2)ccc1O [FSB, (E,E)-1-fluoro-2,5-bis(3-hydroxycarbonyl-4-hydroxy) styrylbenzene]
  Kd: 7.9 µM
